Measurements: patent US8653087B2, “Pyrido [5, 4-D] pyrimidines as cell proliferation inhibitors” (Boehringer Ingelheim International GmbH, priority 2008, dated 2014)

Target: B-Raf (V600E)-kinase (Homo sapiens (Human), UniProt P15056, V600E)
Test: Kinase test B-RAF (V600E)
Format: biochemical
Conditions: B-RAF (V600E) kinase test, 250 μM ATP
Protocol: Kinase Test B-RAF (V600E)
In a dilution series 10 μL of test substance solution are placed in a multiwell plate. The dilution series is selected so that generally a range of concentrations of 2 μM to 0.119 nM or 0.017 nM is covered. If necessary the initial concentration of 2 μM is changed to 50 μM, 10 μM or 0.4 μM or 0.2857 μM and further dilution is carried out accordingly. The final concentration of DMSO is 5%. 10 μL of the B-Raf (V600E)-kinase solution are pipetted in (containing 0.5 ng B-Raf (V600E)-kinase in 20 mM Tris-HCl pH 7.5, 0.1 mM EDTA, 0.1 mM EGTA, 0.286 mM sodium orthovanadate, 10% glycerol, 1 mg/mL bovine serum albumin, 1 mM dithiothreitol) and the mixture is incubated for 24 h at RT under with shaking. The kinase reaction is started by the addition of 20 μL ATP solution [final concentration: 250 μM ATP, 30 mM Tris-HCl pH 7.5, 0.02% Brij, 0.2 mM sodium orthovanadate, 10 mM magnesium acetate, 0.1 mM EGTA, phosphatase cocktail (Sigma, # P2850, dilution recommended by the manufacturer), 0.1 mM EGTA] and 10 μL MEK1 solution [containing 50 ng biotinylated MEK1 (prepared from purified MEK1 according to standard procedure, e.g. with EZ-Link Sulpho-NHS-LC-Biotin reagent, Pierce, #21335) and carried out for 60 min at RT with constant shaking. The reaction is stopped by the addition of 12 μL of a 100 mM EDTA solution and incubation is continued for a further 5 min. 55 μL of the reaction solution are transferred into a streptavidin-coated plate (e.g. Streptawell HighBond, Roche, #11989685001) and shaken gently for 1 h at RT, in order to bind biotinylated MEK1 to the plate. After elimination of the liquid the plate is washed five times with 200 μL of 1×PBS and 100 μL solution of primary antibody plus europium-labelled secondary antibody [Anti Phospho-MEK (Ser217/221), Cell Signaling, #9121 and Eu-N1 labeled goat-anti-rabbit antibody, Perkin Elmer, # AD0105], the primary antibody is diluted 1:2000 and the secondary antibody is diluted to 0.4-0.5 μg/mL in Delfia Assay Buffer (Perkin Elmer, #1244-111). After 1 h shaking at RT the solution is poured away and washed five times with 200 μL Delfia Wash Buffer (Perkin Elmer, #4010-0010/#1244-114). After the addition of 200 μL Enhancement Solution (Perkin Elmer, #4001-0010/#1244-105) the mixture is shaken for 10 min at RT and then measured in a Wallac Victor using the program “Delfia Time Resolved Fluorescence (Europium)”. IC50 values are obtained from these dosage-activity curves using a software program (GraphPadPrizm).

Sequence of B-Raf (V600E)-kinase (P15056 whole entry V600E): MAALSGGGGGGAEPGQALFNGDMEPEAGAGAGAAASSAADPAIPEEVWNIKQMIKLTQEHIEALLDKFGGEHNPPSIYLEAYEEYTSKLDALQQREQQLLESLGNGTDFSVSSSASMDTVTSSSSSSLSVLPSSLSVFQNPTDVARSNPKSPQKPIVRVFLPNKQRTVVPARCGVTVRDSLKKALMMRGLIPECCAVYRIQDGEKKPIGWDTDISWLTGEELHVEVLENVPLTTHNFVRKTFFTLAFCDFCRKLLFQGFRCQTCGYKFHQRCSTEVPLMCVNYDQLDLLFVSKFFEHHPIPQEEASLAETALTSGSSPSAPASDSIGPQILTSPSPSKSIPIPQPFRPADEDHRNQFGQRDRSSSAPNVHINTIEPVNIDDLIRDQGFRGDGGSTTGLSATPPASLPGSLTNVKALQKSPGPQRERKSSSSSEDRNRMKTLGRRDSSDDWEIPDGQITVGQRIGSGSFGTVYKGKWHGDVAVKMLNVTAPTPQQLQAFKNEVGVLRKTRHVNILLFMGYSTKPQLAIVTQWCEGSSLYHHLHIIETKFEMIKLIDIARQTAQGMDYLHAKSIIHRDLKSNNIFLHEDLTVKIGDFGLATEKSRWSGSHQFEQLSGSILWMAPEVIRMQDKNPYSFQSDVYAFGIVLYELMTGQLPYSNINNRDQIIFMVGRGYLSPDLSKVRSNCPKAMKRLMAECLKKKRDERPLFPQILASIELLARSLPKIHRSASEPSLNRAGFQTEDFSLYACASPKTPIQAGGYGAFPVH

`Cc1ccc(C(=O)Nc2cccc(C(F)(F)F)c2)cc1Nc1ncnc2c(N)nc(N3CCCN(C)CC3)nc12` [I-68] and `Cc1ccc(C(=O)Nc2cccc(C(F)(F)F)c2)cc1Nc1ncnc2c(N)nc(N3CCCN(c4ccncc4)CC3)nc12` [I-60] cannot be ordered by IC50: < 1 nM for the first, < 1 nM for the second.

Going from `COc1ccc(C(=O)Nc2ccc(OC)c(C(F)(F)F)c2)cc1Nc1ncnc2cnc(N3CCCCC3)nc12` [III-23] to `COc1ccc(C(=O)Nc2ccc(OC)c(C(F)(F)F)c2)cc1Nc1ncnc2cnc(N3CCCCCC3)nc12` [III-19], the IC50 falls from 7 nM to 1 nM (7-fold). The second is the more potent here.

Going from `Cc1ccc(C(=O)Nc2cc(C(C)(C)C)on2)cc1Nc1ncnc2cnc(N3C[C@@H](C)O[C@@H](C)C3)nc12` [III-368] to `Cc1ccc(C(=O)Nc2cc(C(C)(C)C)on2)cc1Nc1ncnc2cnc(N3CCN(CC(C)C)CC3)nc12` [III-494], the IC50 falls from 14 nM to 4 nM (3.5-fold).

`Cc1ccc(NS(=O)(=O)c2cccc(C(F)(F)F)c2)cc1Nc1ncnc2cnc(N3CCN(C)CC3)nc12` [IV-61] and `Cc1ccc(NS(=O)(=O)CC(F)(F)F)cc1Nc1ncnc2cnc(N3CCN(C)CC3)nc12` [IV-53] are the same in IC50: 10000 nM for the first, 10000 nM for the second.

`COCCN1CCN(c2ncc3ncnc(Nc4cc(C(=O)Nc5cc(C(C)(C)C)on5)ccc4F)c3n2)CC1` [III-395] and `CC(C)N1CCN(c2ncc3ncnc(Nc4cc(C(=O)Nc5cc(C(C)(C)C)on5)ccc4F)c3n2)CC1` [III-396] are within 1.5-fold of each other in IC50: 4 nM for the first, 3 nM for the second.

First: COc1ncc2ncnc(Nc3cc(NC(=O)c4cc(N5CCN(C)CC5)cc(C(F)(F)F)c4)ccc3C)c2n1 [IV-46]
Second: Cc1ccc(NC(=O)c2cc(N3CCN(C)CC3)cc(C(F)(F)F)c2)cc1Nc1ncnc2cnc(N(C)CCN(C)C)nc12 [IV-18]
The IC50 of the first is 3-fold lower: 3 nM for the first, 9 nM for the second.

First: COc1ccc(NC(=O)c2ccc(F)c(Nc3ncnc4cnc(N(C)C)nc34)c2)cc1C(F)(F)F [III-41]
Second: COc1ccc(NC(=O)c2ccc(F)c(Nc3ncnc4cnc(N5CCCCC5)nc34)c2)cc1C(F)(F)F [III-35]
The IC50 of the first is 5-fold lower: 1 nM for the first, 5 nM for the second.

Compared with `COc1ncc2ncnc(Nc3cc(C(=O)Nc4cccc(C(C)(C)C)c4)ccc3C)c2n1` [III-570], `Cc1ccc(C(=O)Nc2cccc(C(C)(C)C)c2)cc1Nc1ncnc2cnc(N3CCCC3)nc12` [III-272] is higher in IC50: < 1 nM for the first, 2 nM for the second.

`Cc1ccc(C(=O)Nc2cc(OCCN(C)C)cc(C(F)(F)F)c2)cc1Nc1ncnc2cnc(NCCF)nc12` [III-144] and `Cc1ccc(C(=O)Nc2cc(N(C)CCN(C)C)cc(C(F)(F)F)c2)cc1Nc1ncnc2cnc(NCc3cccnc3)nc12` [III-168] cannot be ordered by IC50: < 1 nM for the first, < 1 nM for the second.

`COCCN1CCN(c2nc(N)c3ncnc(Nc4cc(C(=O)Nc5cc(C(C)(C)C)n[nH]5)ccc4C)c3n2)CC1` [I-41] and `Cc1ccc(C(=O)Nc2cc(C(C)(C)C)n[nH]2)cc1Nc1ncnc2c(N)nc(N3CCN(C4CCCC4)CC3)nc12` [I-39] are the same in IC50: 5 nM for the first, 5 nM for the second.

First: COc1c(NC(=O)c2ccc(C)c(Nc3ncnc4cnc(N5CCOCC5)nc34)c2)cc(C(C)(C)C)cc1NS(C)(=O)=O [III-323]
Second: Cc1ccc(C(=O)NCc2cccc(C(C)(C)C)c2)cc1Nc1ncnc2cnc(N3CCOCC3)nc12 [III-327]
The IC50 of the first is 5.1-fold lower: 11 nM for the first, 56 nM for the second. The first is the more potent here.

Going from `Cc1ccc(C(=O)NC2CCCCC2)cc1Nc1ncnc2cnc(N3CCN(C)CC3)nc12` [III-189] to `Cc1ccc(NS(=O)(=O)C2CCCCC2)cc1Nc1ncnc2cnc(N3CCN(C)CC3)nc12` [IV-55], the IC50 falls from > 15000 nM to 10000 nM.

First: COCCN(C)c1ncc2ncnc(Nc3cc(C(=O)Nc4cc(CN5CCCC5)cc(C(F)(F)F)c4)ccc3C)c2n1 [III-98]
Second: Cc1ccc(C(=O)Nc2cc(CN3CCCC3)cc(C(F)(F)F)c2)cc1Nc1ncnc2cnc(N3CCSCC3)nc12 [III-99]
The IC50 of the first is 2.5-fold lower: 2 nM for the first, 5 nM for the second.

First: COc1ccc(NC(=O)c2ccc(C)c(Nc3ncnc4cnc(N5CCN6CCCCC6C5)nc34)c2)cc1C(F)(F)F (centres unmarked) [III-555]
Second: COc1ccc(NC(=O)c2ccc(C)c(Nc3ncnc4cnc(N5CCOCC5)nc34)c2)cc1C(F)(F)F [III-2]
The IC50 of the first is higher: 18 nM for the first, < 1 nM for the second.

Compared with `Cc1ccc(C(=O)NCc2ccc(C(F)(F)F)cc2)cc1Nc1ncnc2cnc(N(C)CCN(C)C)nc12` [III-236], `Cc1ccc(C(=O)Nc2cc(C(F)(F)F)ccn2)cc1Nc1ncnc2cnc(N(C)CCN(C)C)nc12` [III-279] is 190-fold lower in IC50: 1120 nM for the first, 6 nM for the second. The second is the more potent here.

Going from `Cc1ccc(C(=O)Nc2cc(C(F)(F)F)ccn2)cc1Nc1ncnc2cnc(N3CCCC3)nc12` [III-275] to `Cc1ccc(C(=O)Nc2cc(C(F)(F)F)ccn2)cc1Nc1ncnc2cnc(N3CCN(CC4CCN(C)CC4)CC3)nc12` [III-510], the IC50 falls from 2 nM to < 1 nM.

Going from `Cc1ccc(C(=O)Nc2ccc(F)c(C(F)(F)F)c2)cc1Nc1ncnc2cnc(N3CC[C@H](F)C3)nc12` [III-286] to `Cc1ccc(C(=O)Nc2cccc(OC(F)(F)F)c2)cc1Nc1ncnc2cnc(N3CC[C@H](F)C3)nc12` [III-290], the IC50 falls from 3 nM to 1 nM (3-fold). The second is the more potent here.

Compared with `Cc1ccc(C(=O)Nc2cccc(C(F)(F)F)c2)cc1Nc1ncnc2c(N)nc(N3CC(C)NC(C)C3)nc12` (centres unmarked) [I-62], `Cc1ccc(NC(=O)c2cccc(C(F)(F)F)c2)cc1Nc1ncnc2c(N)nc(N3C[C@H](C)NC[C@H]3C)nc12` [II-13] is 3.5-fold higher in IC50: 2 nM for the first, 7 nM for the second. The first is the more potent here.

Compared with `Cc1ccc(C(=O)Nc2ccc(N(C)CCN(C)C)c(C(F)(F)F)c2)cc1Nc1ncnc2cnc(NCc3cccnc3)nc12` [III-129], `Cc1ccc(NC(=O)c2cccc(C(F)(F)F)c2)cc1Nc1ncnc2c(N)nc(NCc3cccnc3)nc12` [II-5] is 25-fold higher in IC50: 2 nM for the first, 50 nM for the second.

First: COc1ccc(C(=O)Nc2ccc(OC)c(C(F)(F)F)c2)cc1Nc1ncnc2cnc(NCCCN3CCOCC3)nc12 [III-24]
Second: COc1ccc(NC(=O)c2ccc(F)c(Nc3ncnc4cnc(N5CCCCCC5)nc34)c2)cc1C(F)(F)F [III-32]
The IC50 of the first is 5-fold higher: 5 nM for the first, 1 nM for the second.

Going from `Cc1ccc(NC(=O)c2cccc(C(F)(F)F)c2)cc1Nc1ncnc2c(N)nc(NN3CCN(C)CC3)nc12` [II-3] to `COc1ccc(NC(=O)c2ccc(C)c(Nc3ncnc4c(N)nc(N5CCN(C6CCN(C)CC6)CC5)nc34)c2)cc1C(F)(F)F` [I-15], the IC50 falls from 50 nM to 1 nM (50-fold).

First: Cc1ccc(C(=O)Nc2cccc(C(C)(C)C#N)c2)cc1Nc1ncnc2cnc(N3CCCCC3)nc12 [III-213]
Second: Cc1ccc(NC(=O)c2cccc(C(C)(C)C#N)c2)cc1Nc1ncnc2cnc(N3CCOCC3)nc12 [IV-2]
The IC50 of the first is higher: 3 nM for the first, < 1 nM for the second. The second is the more potent here.

`Cc1ccc(C(=O)Nc2cc(N3CCN(C)CC3)cc(C(F)(F)F)c2)cc1Nc1ncnc2cnc(N3CC[C@H](F)C3)nc12` [III-457] and `Cc1ccc(C(=O)Nc2cc(CN3CCCC3)cc(C(F)(F)F)c2)cc1Nc1ncnc2cnc(N3CCC(F)(F)CC3)nc12` [III-102] are the same in IC50: 4 nM for the first, 4 nM for the second.

Going from `Cc1ccc(C(=O)Nc2cc(C(C)(C)C)on2)cc1Nc1ncnc2cnc(N3CCN(CCCN4CCCC4)CC3)nc12` [III-481] to `Cc1ccc(C(=O)Nc2cc(C(C)(C)C)n[nH]2)cc1Nc1ncnc2cnc(N3CCN(C)CC3)nc12` [III-448], the IC50 rises from 1 nM to 8 nM (8-fold).

Going from `Cc1ccc(C(=O)Nc2cc(C(C)(C)C)on2)cc1Nc1ncnc2cnc(NCC3CCCCO3)nc12` (centres unmarked) [III-361] to `Cc1ccc(C(=O)Nc2cc(C(C)(C)C)on2)cc1Nc1ncnc2cnc(N(C)C3CCOC3)nc12` (centres unmarked) [III-365], the IC50 falls from 2 nM to 1 nM (2-fold).

Going from `COCCN1CCC(Nc2ncc3ncnc(Nc4cc(C(=O)Nc5cc(C(C)(C)C)on5)ccc4C)c3n2)CC1` [III-594] to `CC(C)(C)c1cc(NC(=O)c2ccc(Cl)c(Nc3ncnc4cnc(NCCN5CCOCC5)nc34)c2)no1` [III-78], the IC50 rises from 1 nM to 2 nM (2-fold). The first is the more potent here.

`Cc1ccc(NC(=O)c2cc(C(C)(C)C)nn2C)cc1Nc1ncnc2cnc(N(C)CCCN(C)C)nc12` [IV-24] and `Cc1ccc(C(=O)Nc2cccc(N(C)C)c2)cc1Nc1ncnc2cnc(N(C)CCN(C)C)nc12` [III-238] are within 1.5-fold of each other in IC50: 72 nM for the first, 87 nM for the second.

Compared with `Cc1ccc(C(=O)NCc2ccc(C(F)(F)F)cc2)cc1Nc1ncnc2cnc(N3CC[C@@H](F)C3)nc12` [III-242], `COc1ccc(C(C)(C)C)cc1NC(=O)c1ccc(C)c(Nc2ncnc3cnc(N4CCN(CC5CCN(C)CC5)CC4)nc23)c1` [III-415] is 6.3-fold lower in IC50: 19 nM for the first, 3 nM for the second. The second is the more potent here.

First: Cn1nc(C(C)(C)C)cc1NC(=O)c1ccc(F)c(Nc2ncnc3cnc(NC4CCOC4)nc23)c1 (centres unmarked) [III-387]
Second: COc1ncc2ncnc(Nc3cc(C(=O)Nc4cc(C(C)(C)C)nn4C)ccc3C)c2n1 [III-565]
The IC50 of the first is 5.5-fold lower: 2 nM for the first, 11 nM for the second.

Work on `Cc1ccc(C(=O)Nc2ccc3c(c2)C(C)(C)C(=O)N3CCN2CCCC2)cc1Nc1ncnc2cnc(N(C)CCN(C)C)nc12` [III-196] yielded an IC50 of 16 nM.
